# According to PMC12113707, “Microwave Assisted Synthesis of Antioxidant Dihydro-Pyrazole Hybrids as Possible Lipoxygenase Inhibitors” (Molecules, 2025):
# What was measured:
# [1] = Experimental lipophilicity RM by reverse phase thin layer chromatography (RP-TLC); assay type: physicochemical; conditions: methanol-water mobile phase
# Procedure: Lipophilicity is a main physicochemical parameter for bioactive molecules, linking solubility, ligand-target binding interactions, membrane permeability absorption, distribution, bioavailability, metabolism, elimination and toxicological effects (ADMET), playing an important role in biological activity. The experimental values of lipophilicity RM were determined by reverse phase thin layer chromatography. For the experimental determination of lipophilicity the hydrophilic-lipid phase system is a mixture of methanol- water (90/10%). The theoretical lipophilicity values are determined by the Bioloom program (http://biobyte.com/bb/prod/bioloom.html, accessed on 8 April 2024) (Table 1). According to the calculated clog P values, the most lipophilic compounds are 3c, 3d and 3f while the less lipophilic ones are compounds 5a and 5b.
# Melting points were determined on a MEL-Temp II (Lab. Devices, Holliston, MA, USA). In vitro tests were carried out using a UV-Vis spectra and recorded on a Perkin-Elmer 554 double-beam spectrophotometer (Perkin-Elmer Corporation Ltd., Lane Beaconsfield, Bucks, UK). Infrared spectra (KBr pellets) were recorded with Perkin-Elmer 597 spectrophotometer (Perkin-Elmer Corporation Ltd., Lane Beaconsfield, Bucks, UK). The ^1H […] Magnetic Resonance (^1H-NMR) spectra were acquired on an Agilent 500/54 (DD2) at 500 MHz in CDCl3 using tetramethylsilane as an internal standard. Agilent 500/54 (DD2) ^13C NMR spectra were acquired at 125 MHz in CDCl3 solutions with tetramethylsilane serving as an internal reference. Coupling constants J are expressed in Hz, and chemical shifts are reported in ppm. Thermo Fisher Scientific Inc., Waltham, MA, USA, used MeOH as the solvent to calculate mass spectra using an LC-PDA-MS Thermo Finnigan system (LC Pump Plus, Autosampler, Surveyor PDA Plus Detector) interfaced with an ESI MSQ Plus (Thermo Finnigan). Thin-layer chromatography using 5554 F254 Silica gel/TLC cards (Merck and Fluka Chemie GmbH Buchs, Steinheim, Switzerland) was used to monitor the reaction progress. Silica gel 60 F254 plates with a diameter of 2 mm were utilized for preparative thin layer chromatography (prep TLC) by Merck KgaA (ICH078057). Merck (20 × 20 cm) plates were used for the experimental assessment of the lipophilicity using reverse phase thin-layer chromatography (RP-TLC) TLC-Silica gel 60 F254 DC Kieselgel.
# In this experiment, TLC silica gel 60 F254 1.05715.0001 commercial glass plates from Merck were used. The plates were first immersed in a 5% v/v solution of liquid paraffin in petroleum ether and left for 90 s to become completely impregnated with the stable lipophilic phase. They were then activated by standing for 30 min in an oven at 40 °C and kept there until the time of use. A 70% v/v MeOH/H2O mixture was used as the mobile phase. The mobile phase was saturated with a few drops of liquid paraffin before being used. The spots of the compounds were placed on the plate at a distance of 2 cm from the edges of the plate and also from each other. The development of the spots on the plates was carried out in closed chromatography chambers where the atmosphere is saturated with the mobile phase at room temperature. At the end of development, the solvent-formed front was marked and the plates are dried at 80 °C for about 20–30 min. The appearance of the spots was made under an ultraviolet light lamp. The Rf values were the average of 5–6 measurements for each compound and assuming that the compounds will have been rotated to different positions on the plates. The RM values were calculated from the corresponding Rf values according to the equation [67].RM = log [(1/Rf) − 1](1)
# [2] = Interaction with the stable free radical DPPH (reducing activity); conditions: 517 nm
# Procedure: In general, the compounds present moderate to good antioxidant activity. It seems that the dibenzylacetones present satisfactory antioxidant activity compared to the hybrids at 60 min (1b, 1d and 1f).
# The tested compounds (0.1 mM final concentration) dissolved in DMSO were incubated with a solution of DPPH in absolute ethanol in absence of light. The absorbance at 20 and 60 min at 517 nm was recorded at room temperature. NDGA was used as the reference compound.
# [3] = Inhibition of AAPH-induced linoleic acid peroxidation; conditions: 37 °C, 234 nm
# Procedure: The ability of the compounds to inhibit AAPH-induced peroxidation of linoleic acid is another assay to investigate the antioxidant properties of the compounds. Azo compounds such as 2,2′-azobis dihydrochloride (2-amidinopropane) (AAPH) are capable of generating free radicals through spontaneous decomposition at 37 °C. The R- radicals react immediately with air-oxygen to produce peroxy radicals. AAPH was therefore used as the radical initiator and sodium linoleate as substrate subjected to peroxidation. Measurements were carried out at 234 nm using a UV/V is spectrophotometer. Dichalcone 1i substituted with two phenyl groups presents the lowest lipophilicity. […] Therefore, hydrophilic substituents offer an increase in activity.
# The interaction of free radicals with cell membrane lipids induces free radical chain reactions, a process called lipid peroxidation. 930 μL of a phosphate buffer solution (0.05 M, pH = 7.4), 10 μL of the sodium linolate solution (16 mM in a buffer solution of Tris-HCl pH = 9) and 10 μL of the tested compounds (stock solutions 100 μΜ) were mixed and the oxidative procedure started after the addition of 50 μL AAPH at 37 °C under air conditions. The conjugated diene’s absorbance was measured at 234 nm at a thermostable spectrophotometer (37 °C) according to previous publication.
# [4] = target: T1, soybean lipoxygenase (SLOX-1) (Glycine max, UniProt P08170); assay: Inhibition of soybean lipoxygenase in vitro; assay type: biochemical; conditions: pH 9, sodium linoleate substrate; for inhibition at 100 µM: read-out: LOX% Inhibition, 100 μM (±SD); for IC50: read-out: LOX IC50 (μM) (±SD)
# T1 construct: 200 μL of plant-derived lipoxygenase solution (1:9 × 10^−4 w/v, in saline); purchased Sigma Chemical, Co; host or cells: soybean (plant-derived)
# T1 sequence (P08170 1-839): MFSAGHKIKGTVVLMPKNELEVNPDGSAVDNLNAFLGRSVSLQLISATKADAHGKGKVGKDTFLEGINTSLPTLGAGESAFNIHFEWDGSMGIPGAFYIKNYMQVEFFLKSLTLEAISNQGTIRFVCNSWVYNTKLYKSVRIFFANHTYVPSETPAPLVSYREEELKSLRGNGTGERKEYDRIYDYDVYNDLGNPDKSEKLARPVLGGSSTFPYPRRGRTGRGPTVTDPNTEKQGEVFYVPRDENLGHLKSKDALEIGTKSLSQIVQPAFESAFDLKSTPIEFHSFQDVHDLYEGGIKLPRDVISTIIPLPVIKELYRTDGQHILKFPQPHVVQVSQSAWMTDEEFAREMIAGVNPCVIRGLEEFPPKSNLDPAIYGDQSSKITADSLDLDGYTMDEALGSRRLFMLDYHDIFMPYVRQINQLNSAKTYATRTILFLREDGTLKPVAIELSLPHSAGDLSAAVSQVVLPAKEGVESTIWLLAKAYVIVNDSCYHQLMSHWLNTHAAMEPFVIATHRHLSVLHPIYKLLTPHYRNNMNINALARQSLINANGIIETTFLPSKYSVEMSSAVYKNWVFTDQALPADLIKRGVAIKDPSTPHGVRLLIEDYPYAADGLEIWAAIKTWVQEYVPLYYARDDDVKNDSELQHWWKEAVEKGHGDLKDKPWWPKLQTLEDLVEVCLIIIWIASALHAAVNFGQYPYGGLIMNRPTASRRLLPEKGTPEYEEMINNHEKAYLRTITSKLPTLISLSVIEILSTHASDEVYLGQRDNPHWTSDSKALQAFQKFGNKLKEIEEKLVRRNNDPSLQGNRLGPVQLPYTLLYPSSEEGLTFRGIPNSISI
# Procedure: Soybean lipoxygenase SLOX-1 at pH 9 is used in vitro. During this assay linoleic acid sodium salt is converted to the corresponding 13-hydroperoxide. The reaction is recorded photometrically at 234 nm using the UV-based enzyme assay. […] It is known that soybean LOX inhibitory activity induced by NSAIDs is qualitatively quite similar to the inhibition observed on the rat mast cells LOX and this assay may be used as a qualitative or semi-quantitative screen for such activity.
# To a quartz cell, add 790 μL of Tris-HCl pH = 9.0 buffer, 200 μL of plant-derived lipoxygenase solution (1:9 × 10^−4 w/v, in saline), 10 μL of the test compound solution and 100 μL of sodium linoleate solution (3 mM concentration). The absorbance was measured at 234 nm, where the change in absorbance due to the conversion of linoleic acid to […] was recorded. A solution of 790 μL of Tris-HCl pH = 9.0 buffer, 200 μL of a plant-derived lipoxygenase solution (1:9 × 10^−4 w/v, in saline), 10 μL of DMSO and 100 μL of sodium linoleate solution (3 mM concentration) was used as a control.
RM ± SD [1],inhibition at 100 µM [4],IC50 [4],Structure (SMILES),"RA%, 100 μM, 20 min (±SD) [2]","AAPH% Inhibition, 100 μM (±SD) [3]","RA%, 100 μM, 60 min (±SD) [2]"
0.94 ± 0.069,17 ± 1.2%,–,"N#Cc1ccc(N2N=C(/C=C/c3ccc(Br)cc3)CC2c2ccc(Br)cc2)cc1 (stereo not drawn) [Compound 4c, (E)-4-(5-(4-bromophenyl)-3-(4-bromostyryl)-4,5-dihydro-1H-pyrazol-1-yl)-benzonitrile]",2 ± 0.1%,59 ± 0.2%,–
0.85 ± 0.068,–,85 µM,"N#Cc1ccc(N2N=C(/C=C/c3ccc(Cl)cc3)CC2c2ccc(Cl)cc2)cc1 (stereo not drawn) [Compound 4d, (E)-4-(5-(4-chlorophenyl)-3-(4-chlorostyryl)-4,5-dihydro-1H-pyrazol-1-yl)-benzonitrile]",23 ± 0.3%,51 ± 0.2%,2 ± 0.1%
0.49 ± 0.029,6 ± 0.5%,–,"CN(C)c1ccc(/C=C/C2=NN(c3ccc(C#N)cc3)C(c3ccc(N(C)C)cc3)C2)cc1 (stereo not drawn) [Compound 4e, (E)-4-(5-(4-(dimethylamino)phenyl)-3-(4-(dimethylamino)styryl)-4,5-dihydro-1H-pyrazo-1yl)-benzonitrile]",2 ± 0.1%,74 ± 0.9%,2 ± 0.2%
0.06 ± 0.004,39 ± 0.7%,–,"NC(=O)N1N=C(/C=C/c2ccc(F)cc2)CC1c1ccc(F)cc1 (stereo not drawn) [Compound 5b, (E)-5-(4-fluorophenyl)-3-(4-fluorostyryl)-4,5-dihydro-1H-pyrazole-1-carboxamide]",19 ± 0.1%,8 ± 0.2%,–
0.50 ± 0.043,–,80 µM,"NC(=O)N1N=C(/C=C/c2ccc(Cl)cc2)CC1c1ccc(Cl)cc1 (stereo not drawn) [Compound 5d, (E)-5-(4-chlorophenyl)-3-(4-chlorostyryl)-4,5-dihydro-1H-pyrazole-1-carboxamide]",–,33 ± 0.5%,34 ± 0.5%
0.28 ± 0.019,19 ± 0.4%,–,"CN(C)c1ccc(/C=C/C2=NN(C(N)=O)C(c3ccc(N(C)C)cc3)C2)cc1 (stereo not drawn) [Compound 5e, (E)-5-(4-dimethylaminophenyl)-3-(4-dimethylaminostyryl)-4,5-dihydro-1H-pyrazole-1-carboxamide]",20 ± 0.1%,61 ± 0.9%,–
0.17 ± 0.014,24 ± 0.8%,–,"CC(=O)N1N=C(/C=C/c2ccccc2)CC1c1ccccc1 (stereo not drawn) [Compound 6a, (E)-5-phenyl-3-styryl-4,5-dihydro-1-H-pyrazol-1-ethan-1-one]",11 ± 0.6%,22 ± 1%,–
0.65 ± 0.048,42 ± 2.7%,–,"CC(=O)N1N=C(/C=C/c2ccc(Cl)cc2)CC1c1ccc(Cl)cc1 (stereo not drawn) [Compound 6d, (E)-5-(4-chlorophenyl)-3-(4-chlorostyryl)-4,5-dihydro-1-H-pyrazol-1-ethan-1-one]",–,67 ± 0.4%,8 ± 0.7%
0.47 ± 0.036,–,40 µM,"CC(=O)N1N=C(/C=C/c2ccc(N(C)C)cc2)CC1c1ccc(N(C)C)cc1 (stereo not drawn) [Compound 6e, (E)-5-(4-dimethylaminophenyl)-3-(4-dimethylaminostyryl)-4,5-dihydro-1-H-pyrazol-1-ethan-1-one]",7 ± 0.5%,56 ± 0.3%,12 ± 1%
